Assay results from PMC2893400 (Biomedical chromatography : BMC, 2010).

What was measured:
[1] = Stability post extraction, reconstituted in methanol at room temperature; format: physicochemical; conditions: kept at room temperature
[2] = Stability of stock solutions in methanol at 4°C; format: physicochemical; conditions: stock solution in methanol stored at 4°C, up to 7 days

| Degradation reconstituted in methanol after recovery [1] | Degradation of stock solution [2] | Structure (SMILES) |
| --- | --- | --- |
| no degradation | no degradation after 7 days | O=C(CCCN1CCCN(c2ccc(Cl)cc2)CC1)c1ccc(F)cc1 [DAL, 4-[4-(4-Chlorophenyl)-1,4-diazepan-1-yl]-1-(4-fluorophenyl) butan-1-one] |
| no degradation | no degradation after 7 days | O=C(CCCN1CC=C(n2c(=O)[nH]c3ccccc32)CC1)c1ccc(F)cc1 [DRO, droperidol] |

| Structure (SMILES) | Degradation reconstituted in methanol after recovery [1] | Degradation of stock solution [2] |
| --- | --- | --- |
| CC(C)C[C@H]1C(=O)N2CCC[C@H]2[C@]2(O)O[C@](NC(=O)[C@@H]3C=C4c5cccc6[nH]c(Br)c(c56)C[C@H]4N(C)C3)(C(C)C)C(=O)N12 [BCT, bromocriptine] | – | began to degrade significantly after 3 days |
